Laboratory results: US20240398805A1, “QUINAZOLINE DERIVED COMPOUNDS AS EGFR INHIBITORS AND THEIR USES THEREOF” (ACCUTAR BIOTECHNOLOGY INC., priority 2021, published 2024)

What was measured:
Type in all cases: cell-based
HCC827 cells = experiment: Cell growth inhibition (CellTiter-Glo, 3 days) in HCC827; conditions: Homo sapiens, 72 h, 3 days after administration
Outline: (§1)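 HCC827 cells were plated at 5000 cells/well in RPMI with 10% FBS, and A431 cells at the same density in DMEM with 10% FBS. After overnight attachment, compounds were added at various concentrations. Luminescence was recorded after plates were equilibrated to room temperature and incubated 10 min with reagent.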

[1] = tested on: HCC827-SVD cells (human EGFR exon 20 insertion mutant D770_N771 insSVD); experiment: Cell growth inhibition (CellTiter-Glo, 3 days) in HCC827-SVD; conditions: 72 h, 3 days after administration
Outline: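 HCC827 cells carrying lentiviral codon-optimized EGFR D770_N771 insSVD, with endogenous EGFR knocked out by CRISPR (single clone), seeded at 5000 cells/well in RPMI with 10% FBS. Viability read by CellTiter-Glo luminescence.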

[2] = tested on: HCC827-ASV cells (human EGFR exon 20 insertion mutant A769_D770insASV); experiment: Cell growth inhibition (CellTiter-Glo, 3 days) in HCC827-ASV; conditions: 72 h, 3 days after administration
Outline: (§2)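 Growth inhibition used a CellTiter-Glo luminescence read-out after 3 days of compound exposure at various concentrations. Cells were plated the day before at 5000/well in RPMI plus 10% FBS. The lines are HCC827 transduced by lentivirus with codon-optimized EGFR ASV or ERBB2 YVMA exon 20 insertions.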

[3] = tested on: HCC827-YVMA cells (human ERBB2 exon20 insertion mutant A775_G776ins YVMA); experiment: Cell growth inhibition (CellTiter-Glo, 3 days) in HCC827-YVMA; conditions: 72 h, 3 days after administration
Outline: as §2

A431 cells = experiment: Cell growth inhibition (CellTiter-Glo, 3 days) in A431; conditions: Homo sapiens, A-431, 72 h, 3 days after administration
Outline: as §1

SMILES	GI50 (HCC827 cells)	GI50 [1]	GI50 [2]	GI50 [3]	GI50 (A431 cells)
C=CC(=O)N1CCC(Nc2cc3c(Nc4ccc(Oc5ccnc(N6CCCC(F)(F)C6)c5)cc4F)ncnc3cc2OC)CC1 [Example 219, 1-(4-((4-((4-((2-(3,3-difluoropiperidin-1-yl)pyridin-4-yl)oxy)-2-fluorophenyl)amino)-7-methoxyquinazolin-6-yl)amino)piperidin-1-yl)prop-2-en-1-one]	100 to 300 nM	< 30 nM	< 30 nM	< 30 nM	300 to 600 nM
C=CC(=O)N1CCC(Nc2cc3c(Nc4ccc(Oc5ccnc(N6CCCC(C)(O)C6)c5)cc4F)ncnc3cc2OC)CC1 (stereo not drawn) [Example 220, 1-(4-((4-((2-fluoro-4-((2-(3-hydroxy-3-methylpiperidin-1-yl)pyridin-4-yl)oxy)phenyl)amino)-7-methoxyquinazolin-6-yl)amino)piperidin-1-yl)prop-2-en-1-one]	100 to 300 nM	< 30 nM	< 30 nM	< 30 nM	600 to 1000 nM
C=CC(=O)N1CCC(Nc2cc3c(Nc4ccc(Oc5ccnc(N6CCCC(C#N)C6)c5)cc4F)ncnc3cc2OC)CC1 (stereo not drawn) [Example 221, 1-(4-(4-((6-((1-acryloylpiperidin-4-yl)amino)-7-methoxyquinazolin-4-yl)amino)-3-fluorophenoxy)pyridin-2-yl)piperidine-3-carbonitrile]	100 to 300 nM	< 30 nM	< 30 nM	< 30 nM	100 to 300 nM
C=CC(=O)N1CCC(Nc2cc3c(Nc4ccc(Oc5ccnc(N6CCC[C@H](C)C6)c5)cc4F)ncnc3cc2OC)CC1 [Example 222, (S)-1-(4-((4-((2-fluoro-4-((2-(3-methylpiperidin-1-yl)pyridin-4-yl)oxy)phenyl)amino)-7-methoxyquinazolin-6-yl)amino)piperidin-1-yl)prop-2-en-1-one]	60 to 100 nM	< 30 nM	< 30 nM	< 30 nM	600 to 1000 nM
C=CC(=O)N1CCC(Nc2cc3c(Nc4ccc(Oc5ccnc(N6CCN(C)C(=O)C6)c5)cc4F)ncnc3cc2OC)CC1 [Example 223, 4-(4-(4-((6-((1-acryloylpiperidin-4-yl)amino)-7-methoxyquinazolin-4-yl)amino)-3-fluorophenoxy)pyridin-2-yl)-1-methylpiperazin-2-one]	300 to 600 nM	100 to 300 nM	100 to 300 nM	100 to 300 nM	600 to 1000 nM
C=CC(=O)N1CCC(Nc2cc3c(Nc4ccc(Oc5ccnc(N6CCN[C@H](C)C6)c5)cc4F)ncnc3cc2OC)CC1 [Example 224, (R)-1-(4-((4-((2-fluoro-4-((2-(3-methylpiperazin-1-yl)pyridin-4-yl)oxy)phenyl)amino)-7-methoxyquinazolin-6-yl)amino)piperidin-1-yl)prop-2-en-1-one]	≥ 1000 nM	300 to 600 nM	600 to 1000 nM	600 to 1000 nM	≥ 1000 nM
C=CC(=O)N1CCC(Nc2cc3c(Nc4ccc(Oc5ccnc(N6CCN[C@@H](C)C6)c5)cc4F)ncnc3cc2OC)CC1 [Example 225, (S)-1-(4-((4-((2-fluoro-4-((2-(3-methylpiperazin-1-yl)pyridin-4-yl)oxy)phenyl)amino)-7-methoxyquinazolin-6-yl)amino)piperidin-1-yl)prop-2-en-1-one]	≥ 1000 nM	300 to 600 nM	300 to 600 nM	300 to 600 nM	≥ 1000 nM
C=CC(=O)N1CCC(Nc2cc3c(Nc4ccc(Oc5ccnc(N6CCNC(C)(C)C6)c5)cc4F)ncnc3cc2OC)CC1 [Example 226, 1-(4-((4-((4-((2-(3,3-dimethylpiperazin-1-yl)pyridin-4-yl)oxy)-2-fluorophenyl)amino)-7-methoxyquinazolin-6-yl)amino)piperidin-1-yl)prop-2-en-1-one]	≥ 1000 nM	300 to 600 nM	≥ 1000 nM	≥ 1000 nM	≥ 1000 nM
C=CC(=O)N1CCC(Nc2cc3c(Nc4ccc(Oc5ccnc(N6CCC[C@@H](OC)C6)c5)c(Cl)c4)ncnc3cc2OC)CC1 [Example 227, (R)-1-(4-((4-((3-chloro-4-((2-(3-methoxypiperidin-1-yl)pyridin-4-yl)oxy)phenyl)amino)-7-methoxyquinazolin-6-yl)amino)piperidin-1-yl)prop-2-en-1-one]	100 to 300 nM	30 to 60 nM	60 to 100 nM	60 to 100 nM	300 to 600 nM
C=CC(=O)N1CCC(Nc2cc3c(Nc4ccc(Oc5ccnc(N6CCN(C)CC6)c5)c(Cl)c4)ncnc3cc2OC)CC1 [Example 228, 1-(4-((4-((3-chloro-4-((2-(4-methylpiperazin-1-yl)pyridin-4-yl)oxy)phenyl)amino)-7-methoxyquinazolin-6-yl)amino)piperidin-1-yl)prop-2-en-1-one]	300 to 600 nM	100 to 300 nM	60 to 100 nM	60 to 100 nM	≥ 1000 nM

The next lines start with the values.

GI50 (HCC827 cells)	GI50 [1]	GI50 [2]	GI50 [3]	GI50 (A431 cells)	SMILES
100 to 300 nM	60 to 100 nM	100 to 300 nM	100 to 300 nM	300 to 600 nM	C=CC(=O)N1CCC(Nc2cc3c(Nc4ccc(Oc5ccnc(N6CCC(O)CC6)c5)c(Cl)c4)ncnc3cc2OC)CC1 [Example 229, 1-(4-((4-((3-chloro-4-((2-(4-hydroxypiperidin-1-yl)pyridin-4-yl)oxy)phenyl)amino)-7-methoxyquinazolin-6-yl)amino)piperidin-1-yl)prop-2-en-1-one]
300 to 600 nM	30 to 60 nM	< 30 nM	< 30 nM	≥ 1000 nM	C=CC(=O)N1CCC(Nc2cc3c(Nc4ccc(Oc5ccnc(N6CCC[C@@H](OC)C6)c5)cc4)ncnc3cc2OC)CC1 [Example 230, (R)-1-(4-((7-methoxy-4-((4-((2-(3-methoxypiperidin-1-yl)pyridin-4-yl)oxy)phenyl)amino)quinazolin-6-yl)amino)piperidin-1-yl)prop-2-en-1-one]
≥ 1000 nM	300 to 600 nM	100 to 300 nM	100 to 300 nM	≥ 1000 nM	C=CC(=O)N1CCC(Nc2cc3c(Nc4ccc(Oc5ccnc(N6CCN(C)CC6)c5)cc4)ncnc3cc2OC)CC1 [Example 231, 1-(4-((7-methoxy-4-((4-((2-(4-methylpiperazin-1-yl)pyridin-4-yl)oxy)phenyl)amino)quinazolin-6-yl)amino)piperidin-1-yl)prop-2-en-1-one]
60 to 100 nM	30 to 60 nM	< 30 nM	< 30 nM	300 to 600 nM	C=CC(=O)N1CCC(Nc2cc3c(Nc4ccc(Oc5ccnc(-c6cccc(C)c6)c5)cc4F)ncnc3cc2OC)CC1 [Example 234, 1-(4-((4-((2-fluoro-4-((2-(m-tolyl)pyridin-4-yl)oxy)phenyl)amino)-7-methoxyquinazolin-6-yl)amino)piperidin-1-yl)prop-2-en-1-one]
60 to 100 nM	30 to 60 nM	30 to 60 nM	60 to 100 nM	600 to 1000 nM	C=CC(=O)N1CCC(Nc2cc3c(Nc4ccc(Oc5ccnc(-c6ccc(C)cc6)c5)cc4F)ncnc3cc2OC)CC1 [Example 235, 1-(4-((4-((2-fluoro-4-((2-(p-tolyl)pyridin-4-yl)oxy)phenyl)amino)-7-methoxyquinazolin-6-yl)amino)piperidin-1-yl)prop-2-en-1-one]
